Test results published in patent publication US10662222B2, “Drug delivery enhancement agents” (The University of Bath, priority 2014, dated 2020).
Read-outs that look alike come from different tables or passages of the source.

Experiments:
[1] = tested on: Caco-2 cell monolayers; assay: Trans-epithelial electrical resistance (TEER) of Caco-2 monolayers after apical peptide application; assay type: cell-based, human; details: for Efficacy at 5 mM (TEER reduction): apical application to Caco-2 cell monolayers
Procedure: An immortalized human intestinal epithelial cell line (Caco-2) were maintained in DMEM/F12 medium (Gibco, Paisley, UK) supplemented with 10% FBS, 2 mM L-glutamine (Gibco) 100 U/ml penicillin and 100 μg/ml streptomycin (Gibco). Caco-2 cells were seeded at a density of 7×10^4/well on Transwell™ (Corning, N.Y.) polyester membrane filters (12 mm diameter, 0.4 μm pore size). Re-feeding with DMEM (Life Technologies, Paisley, UK) was carried out every second day. Caco-2 monolayers with trans-epithelial electrical resistance (TEER)>350 Ω·cm2 were considered confluent and used in transport assays; fixed paddle electrodes were used to measure TEER (World Precision Instruments, UK).
(§1) Apical to basal flux of 50 mg/ml 4 kDa dextran or 50 mg/ml 70 kDa dextran (Sigma) was performed to assess the impact of PIP peptides on paracellular permeability. Apical compartment volume was 200 μl; at set times the 600 μl basal compartment volume was collected and replaced with fresh HBSS. Apical and basal compartment fluorescence was determined using a Floustar Omega microplate reader (BMG Labtech, Ortenburg, Germany). TEER measurements were made for each well immediately after HBSS replacement. After 3 hr, the apical compartment dextran and peptide solution was removed and replaced with PBS and TEER values were recorded for a further 30 min to assess monolayer recovery.
(§2) TEER values were calculated by subtracting blank filter reading and normalized as a percentage of the initial TEER value for that monolayer. Fluorescent dextran flux used to calculate paracellular permeability was performed as previously described. Blood glucose levels were expressed as a percentage of the baseline glucose levels for each animal. Data were compared to control values using a two-tailed, un-paired Student's T-test.
Peptides were applied apically at a concentration of 5 mM to confluent monolayers of Caco-2 cells grown on semi-permeable inserts (Rubus et al. (1996) J. Pharma. Sci 85:165-169) to assess their ability to affect TJ function (Peterson & Mooseker (1992) J. Cell. Sci. 102(3):581-600). RRVEVKYDRR (peptide #6; peptide 640, SEQ ID NO: 3) reduced the trans-epithelial electrical resistance (TEER) of Caco-2 monolayers with a drop of 50% within 25 min of addition (FIG. 4), and none of the peptides were toxic at this concentration according to MTT assay (Mosman (1983) J. Immunol. Methods 65:55-63). Critically, following gentle washing, RRVEVKYDRR (SEQ ID NO: 3)-treated Caco-2 monolayers TEER values recovered to 80% of their original values within 24 h. A lead candidate, peptide NH2-rrdykvevrr-NH2, (SEQ ID NO: 20) was identified based on the RRVEVKYDRR (SEQ ID NO: 3) sequence but using the retro-inverso configuration with D-configuration amino acids.

[2] = tested on: Caco-2 monolayers; assay: Apical to basal flux of fluorescent dextran (4 kDa, 70 kDa) across Caco-2 monolayers; assay type: cell-based, human; details: for transport of paracellular marker 4 kDa fluorescent dextran (4FD): relative to control peptide, FIG. 5
Procedure: as §1, §2

[3] = Blood glucose after SC or intraluminal intestinal (ILI) injection of insulin with PIP peptides; assay type: in vivo, rat
Procedure: Male Wistar rats, bred in house, were 225-275 g (approximately 6-8 weeks old) when placed on study. Rats were housed in groups of 3-5 per cage in a 12/12 hr light/dark cycle. All experiments were conducted during the light phase and carried out using a non-recovery protocol that used continuous isoflurane anesthesia. A 4-5 cm midline abdominal incision was made to expose mid-jejunum to early ileum regions of the small intestine and to provide access to the portal vein for the insertion of a cannula. Solutions of insulin (human recombinant; Sigma) and PIP peptides were prepared in 0.9% saline containing 10 mM citric acid to reduce local proteolysis and mixed 1:1 before injection using a 29-gauge hypodermic needle in a volume of 200 μL/kg (or ˜50 μL, per 250 g rat). The injection site was marked with a permanent marker. The incision was closed with surgical glue. Blood draws were taken from the portal vein as well as systemic circulation over the next two hours to monitor glucose, serum insulin and endotoxin. Control treatment groups included SC injection of insulin […] as well as intestinal injection of PIP peptide without insulin or insulin alone in the phosphate buffered saline (PBS) formulation used for all groups. At the end of a study, a 3-5 mm region about the marked intestine segment was isolated. This tissue was lysed for biochemical assessment of MLC phosphorylation state or fixed, sectioned, and stained with hematoxylin/eosin prior to analysis read by a licensed veterinary pathologist. Subcutaneous (SC) insulin injections (20 μl/kg) were performed in the mid-scapular region and blood glucose was measured in the same manner. All experiments were performed in accordance with the U.K. Animals (Scientific Procedures) Act of 1986, the European Communities Council Directive of 1986 (86/609/EEC), and the University of Bath's ethical review procedures.
as §2

[4] = tested on: myosin light chain (MLC) phosphorylated at Ser19; assay: PhosphoMLC analysis (Western blot) of intestinal tissue after ILI injection; assay type: in vivo, rat; details: 20 mM peptide
Procedure: After rinsing with ice cold PBS, Caco-2 monolayers or epithelial cells from isolated intestinal tissue were lysed in 3 μL of a protease inhibitor cocktail and 200 μL RIPA buffer and left on ice for 10 min. Isolated intestinal tissue was similarly placed in ice cold PBS for 15 min prior to maceration in a protease inhibitor cocktail and RIPA buffer, being left on ice for 10 min. All cell and tissues lysates were centrifuged at 8000 rpm for 15 min to collect the supernatant, which was stored at −80° C. until use. For Western blots analysis, lysates were separated by SDS-PAGE (12%) run at 220V for 40 min and electro-transferred onto a PDVF membrane at 30V for 70 min using an XCell™ Blot module (Invitrogen). Membranes were blocked using 5% bovine serum albumin in TBS-T (2 M Tris, HCl, pH 7.5, 4 M NaCl and 0.1% Tween 20) for 1 hr. Membranes were washed with water, incubated with primary antibody (anti-myosin light chain (phospho S20) antibody or anti-myosin light chain 2) antibody overnight at 5° C., washed thrice with TBS-T, and then incubated with secondary horseradish […] (HRP)-coupled antibody for 1 hr at room temperature. After washing thrice in TBS-T, HRP activity was detected by ECL (Santa Cruz).
After rinsing with ice cold PBS to remove PIP peptide or control treatment agents, isolated intestinal tissue was placed in ice cold PBS for 15 min prior to addition of 25 μl protease inhibitor cocktail (Fisher), 25 μl phosphatase inhibitor cocktail (Fisher) and 500 μl RIPA buffer (Sigma Aldrich). After 10 min on ice lysates were centrifuged at 8000 rpm for 15 min to collect the supernatant, which was stored at −80° C. until use. For Western blots analysis, lysates were separated by SDS-PAGE (12%) run at 220V for 40 min and electro-transferred onto a PDVF membrane at 30V for 70 min using an XCell™ Blot module (Invitrogen). Membranes were blocked using 5% bovine serum albumin in TBS-T (2 M Tris HCl, pH 7.5, 4 M NaCl and 0.1% Tween 20) for 1 h. Membranes were washed with water, incubated with primary antibody (anti-myosin light chain (phospho S19) antibody (Cell Signalling Technologies) or anti-myosin light chain 2 antibody (Abcam) overnight at 5° C., washed thrice with TBS-T, and then incubated with secondary horseradish […] (HRP)-coupled antibody for 1 h at room temperature. After washing thrice in TBS-T, HRP activity was detected by ECL (Santa Cruz).

[5] = tested on: Caco-2 cells
Procedure: (§3) MTT assay: Cell viability was assessed using the 3-(4,5-dimethylthiazol-2-yl)-2,5-diphenyl tetrazolium bromide (MTT; Invitrogen, Paisley, UK) assay. Following exposure of cells to CPP complexes for 72 hours, 0.5 mg/ml MTT was added to the culture medium and incubated with the cells for a further 3 hours. Media was then removed and replaced with DMSO to lyse the cells. Absorbance was then recorded at 550 nm.

[6] = tested on: Caco-2 cell monolayers; assay: Trans-epithelial electrical resistance (TEER) of Caco-2 monolayers after apical peptide application; assay type: cell-based, human; details: FIG. 6; for TEER after peptide removal: fresh media to apical compartment after 180 min exposure
[7] = tested on: Caco-2 cells; assay: Cell viability / cytotoxicity, MTT assay
Procedure: as §3

Q: Which “Efficacy at 5 mM (TEER reduction)” value ([1]; 5 mM) does the source give for “NH2-RRK TVKYDRR-NH2 (H-RRKTVKYDRR-NH2) [compound 5]” here?
A: No

Q: Which “drop of TEER” value ([1]; 5 mM apical, within 25 min of addition) does the source give for NH2-RRV EVKYDRR-NH2 [peptide 640] here?
A: 50%

Q: And the “Efficacy at 5 mM (TEER reduction)” value ([1]; 5 mM)?
A: Yes

Q: What about the “TEER decrease to % of its initial value” ([1]; 5 mM, FIG. 5) of the same substance?
A: ~50%

Q: What about the “loss in TEER” value ([1]; 5 mM, after 180 min of exposure) of the same substance?
A: ~50%

Q: And the “TEER recovery, % of original values” ([1]; after gentle washing, within 24 h)?
A: 80%

Q: What about the “permeability of 4 kDa dextran” value ([2]; 5 mM) of the same substance?
A: failed to affect

Q: What about the “transport of paracellular marker 4 kDa fluorescent dextran (4FD)” value ([2]; 5 mM) of the same substance?
A: increased transport of a paracellular marker relative to the control

Q: And the “increase of rate of 4 kDa dextran permeation” value ([2]; 10 mM apical)?
A: ~3 fold

Q: And the “flux of 70 kDa dextran” value ([2]; concentration not given)?
A: failed to affect

Q: What about the “blood glucose change profile” value ([3]; ILI of 30 IU/kg insulin plus 10 mM peptide) of the same substance?
A: much delayed decrease

Q: And the “MLC phosphorylation ratio (MLC to pMLC)” value ([4]; 15 min)?
A: significantly increased

Q: What about the “MLC phosphorylation ratio (MLC to pMLC)” value ([4]; 45 min) of the same substance?
A: remained elevated

Q: What about the “MLC phosphorylation ratio (MLC to pMLC)” value ([4]; 90 min) of the same substance?
A: returning to initial levels

Q: What about the “cell viability (mitochondrial membrane polarity marker MTS)” value [5] of the same substance?
A: did not affect cell viability

Q: And the “TEER after peptide removal” value [6]?
A: rapid reversal of TEER depression

Q: For “NH2-RRV TVKYDRR-NH2 (H-RRVTVKYDRR-NH2) [peptide 1]”, which “Efficacy at 5 mM (TEER reduction)” value ([1]; 5 mM) is on record?
A: No

Q: Which “Efficacy at 5 mM (TEER reduction)” value ([1]; 5 mM) does the source give for “NH2-RRV TVKYKRR-NH2 (H-RRVTVKYKRR-NH2) [compound 3]” here?
A: No

Q: For “NH2-RRVpTVKYDRR-NH2 (RRVTVKYDRR; HELM PEPTIDE1{R.R.V.[C[C@@H](OP(=O)(O)O)[C@H](N[*:1])C(=O)[*:2]].V.K.Y.D.R.R.[am]}$$$$V2.0; SMILES CC(C)[C@H](NC(=O)[C@H](CCCNC(=N)N)NC(=O)[C@@H](N)CCCNC(=N)N)C(=O)N[C@H](C(=O)N[C@H](C(=O)N[C@@H](CCCCN)C(=O)N[C@@H](Cc1ccc(O)cc1)C(=O)N[C@@H](CC(=O)O)C(=O)N[C@@H](CCCNC(=N)N)C(=O)N[C@@H](CCCNC(=N)N)C(N)=O)C(C)C)[C@@H](C)OP(=O)(O)O) [peptide 2]”, which “Efficacy at 5 mM (TEER reduction)” value ([1]; 5 mM) is on record?
A: No

Q: With “NH2-RRVpTVKYKRR-NH2 (RRVTVKYKRR; HELM PEPTIDE1{R.R.V.[C[C@@H](OP(=O)(O)O)[C@H](N[*:1])C(=O)[*:2]].V.K.Y.K.R.R.[am]}$$$$V2.0; SMILES CC(C)[C@H](NC(=O)[C@H](CCCNC(=N)N)NC(=O)[C@@H](N)CCCNC(=N)N)C(=O)N[C@H](C(=O)N[C@H](C(=O)N[C@@H](CCCCN)C(=O)N[C@@H](Cc1ccc(O)cc1)C(=O)N[C@@H](CCCCN)C(=O)N[C@@H](CCCNC(=N)N)C(=O)N[C@@H](CCCNC(=N)N)C(N)=O)C(C)C)[C@@H](C)OP(=O)(O)O) [compound 4]” as the substance, how does the “Efficacy at 5 mM (TEER reduction)” value ([1]; 5 mM) read?
A: No

Q: What does the source list for “RKAKYQYRRK (drug delivery enhancement peptide) [peptide 250]”?
A: TEER change compared with peptide 640 ([1]; 5 mM, FIG. 5): slower and less pronounced drop in TEER; transport of paracellular marker 4 kDa fluorescent dextran (4FD) ([2]; 5 mM): increased transport of a paracellular marker relative to the control; 4 kDa dextran flux rates, comparison ([2]; 10 mM): 10 mM peptide 640 was equal to 10 mM peptide 250; 4 kDa dextran flux rate compared to control ([2]; 20 mM): ~6 fold; increase of 70 kDa dextran flux ([2]; 20 mM): ~3 fold; blood sugar recovery ([3]; ILI of 30 IU/kg insulin plus 10 mM peptide, by 90 min): 70-80%; drop in blood glucose ([3]; ILI of 30 IU/kg insulin plus 20 mM peptide, by 30 min, remained for the remainder of the experiment): 40%; MLC phosphorylation ratio (MLC to pMLC) ([4]; 15 min): no significant changes; MLC phosphorylation ratio (MLC to pMLC) ([4]; 45 min): elevated; MLC phosphorylation ratio (MLC to pMLC) ([4]; 90 min): returning to basal levels; TEER response ([6]; 20 mM peptide 250 versus 10 mM peptide 640): very comparable response to 10 mM peptide 640; TEER after peptide removal [6]: rapid reversal of TEER depression; cell viability (mitochondrial membrane polarity marker MTS) ([7]; concentrations that modulated TEER and paracellular permeability): did not affect cell viability; cytotoxicity using the MTT assay ([7]; data not shown): lack of cytotoxicity

Q: Which “decrease in blood glucose” value ([3]; SC injection of 3 IU/kg insulin) does the source give for insulin here?
A: ~50%

Q: What about the “time at which blood glucose began to recover” value ([3]; SC injection of insulin) of the same substance?
A: ~90 min

Q: What about the “time of blood glucose nadir” value ([3]; SC injection of insulin) of the same substance?
A: ~30 min

Q: What about the “effect on blood sugar” value ([3]; intraluminal injection of 30 IU/kg insulin alone) of the same substance?
A: no effect
